Series [1] is described as follows: Cmax in Sprague-Dawley rat 10 mg/kg, po. Also on record: dose 10 mg/kg, route oral. The following applies: in vivo. Format: ADME, organism-based.
The target of series [2] is T1, 5-hydroxytryptamine receptor 2B (Homo sapiens, UniProt P41595). Nature of the series: Antagonist activity at 5-HT2B receptor expressed in CHOK1 cells assessed as inhibition of serotonin-induced intracellular Ca2+ flux by aequorin luminescence assay in presence of 4% human serum albumin. The class given is functional, cell-based, CHO-K1. On the technique in general: A change in cytosolic calcium serves as a functional read-out for many receptors and channels.
T1 sequence (P41595 whole entry): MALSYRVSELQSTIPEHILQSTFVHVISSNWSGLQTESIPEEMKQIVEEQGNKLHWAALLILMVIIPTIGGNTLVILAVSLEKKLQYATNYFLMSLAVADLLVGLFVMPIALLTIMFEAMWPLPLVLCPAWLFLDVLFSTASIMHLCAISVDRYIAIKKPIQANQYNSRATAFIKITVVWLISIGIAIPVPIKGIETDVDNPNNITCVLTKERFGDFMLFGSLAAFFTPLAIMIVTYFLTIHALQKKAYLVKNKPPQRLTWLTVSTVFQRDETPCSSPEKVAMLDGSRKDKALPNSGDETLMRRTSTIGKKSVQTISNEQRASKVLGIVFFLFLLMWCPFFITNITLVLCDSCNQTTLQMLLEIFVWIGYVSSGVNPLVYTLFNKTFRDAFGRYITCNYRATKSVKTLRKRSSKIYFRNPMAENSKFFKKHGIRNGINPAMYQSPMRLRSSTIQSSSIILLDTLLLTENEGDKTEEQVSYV

The target in series [3] is T1, 5-hydroxytryptamine receptor 2B. Nature of the series: Antagonist activity at 5-HT2B receptor expressed in CHOK1 cells assessed as inhibition of serotonin-induced intracellular Ca2+ flux by aequorin luminescence assay. The class given is functional, cell-based, CHO-K1.
Series [4] is described as follows: AUC in Sprague-Dawley rat at 10 mg/kg, po. Set-up: dose 10 mg/kg, route oral. The following applies: plasma. The class given is ADME, organism-based.
Series [5] is described as follows: Oral bioavailability in Sprague-Dawley rat. The following applies: in vivo. The class given is ADME, organism-based.
Series [6] can be described thus: Selectivity for 5-HT2B receptor over 5-HT2C receptor.
Series [7] is described as follows: Selectivity for 5-HT2B receptor over 5-HT2A receptor.
The nature of series [8]: Protein binding in plasma by dialysis method. The class given is ADME, cell-free. As to conditions: read-out: PPB (converted).
Series [9] in a line: Cmax in Wistar rat 10 mg/kg, po. The class given is ADME, organism-based. Also on record: dose 10 mg/kg, route oral. As to conditions: in vivo.
Series [10] can be described thus: Oral bioavailability in Wistar rat. The following applies: in vivo. Format: ADME, organism-based.
The nature of series [11]: AUC in Wistar rat at 10 mg/kg, po. The following applies: plasma. Set-up: dose 10 mg/kg, route oral. The class given is ADME, organism-based.
Another series concerns Rattus norvegicus. Nature of the series: Hepatic blood flow in Wistar rat at 1 mg/kg, iv. Also on record: dose 1 mg/kg, route intravenous. The following applies: in vivo. Format: ADME, organism-based, Liver.
Series [12] is described as follows: Aqueous solubility of compound at pH 7.4. Format: physicochemical. The following applies: aqueous medium.
Series [13] deals with 5-hydroxytryptamine receptor 2A (Homo sapiens) (UniProt P28223). Kind of series: Antagonist activity at 5-HT2A receptor up to 10 uM by FLIPR assay. The class given is functional.
Chain of 5-hydroxytryptamine receptor 2A (Homo sapiens) (P28223 whole entry): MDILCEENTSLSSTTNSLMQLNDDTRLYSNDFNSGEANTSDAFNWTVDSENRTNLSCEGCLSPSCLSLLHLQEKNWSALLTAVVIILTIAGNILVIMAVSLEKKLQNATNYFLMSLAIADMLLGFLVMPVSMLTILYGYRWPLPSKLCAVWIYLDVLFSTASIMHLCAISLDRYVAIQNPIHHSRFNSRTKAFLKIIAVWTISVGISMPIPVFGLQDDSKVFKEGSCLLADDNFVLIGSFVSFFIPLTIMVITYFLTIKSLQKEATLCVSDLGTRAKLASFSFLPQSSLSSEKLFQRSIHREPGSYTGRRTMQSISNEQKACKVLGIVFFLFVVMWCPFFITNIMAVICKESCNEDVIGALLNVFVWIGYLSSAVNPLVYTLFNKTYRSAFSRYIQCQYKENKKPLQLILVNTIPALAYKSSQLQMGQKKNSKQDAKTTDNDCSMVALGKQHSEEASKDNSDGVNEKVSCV
The target in series [14] is T2, 5-hydroxytryptamine receptor 2C (Homo sapiens) (UniProt P28335).
T2 sequence (whole entry): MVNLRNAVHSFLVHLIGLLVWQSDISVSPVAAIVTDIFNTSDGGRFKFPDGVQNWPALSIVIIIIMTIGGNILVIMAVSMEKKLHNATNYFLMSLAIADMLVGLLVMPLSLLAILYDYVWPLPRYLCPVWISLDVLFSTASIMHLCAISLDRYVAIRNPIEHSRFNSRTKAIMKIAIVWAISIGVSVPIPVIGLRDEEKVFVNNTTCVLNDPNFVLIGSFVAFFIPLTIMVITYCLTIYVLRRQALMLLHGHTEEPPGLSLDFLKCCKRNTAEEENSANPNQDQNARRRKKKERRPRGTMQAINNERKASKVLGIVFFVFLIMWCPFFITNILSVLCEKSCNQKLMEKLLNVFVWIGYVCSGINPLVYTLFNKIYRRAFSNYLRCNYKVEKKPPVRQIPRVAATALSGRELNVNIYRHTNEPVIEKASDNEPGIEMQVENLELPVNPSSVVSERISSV
Kind of series: Antagonist activity at 5-HT2C receptor up to 10 uM by FLIPR assay. Format: functional.

Series [15] can be described thus: Inhibition of dopamine D4.2 receptor at 10 uM.

The results in this text go back to ChEMBL document CHEMBL1138587, “A new class of 5-HT2B antagonists possesses favorable potency, selectivity, and rat pharmacokinetic properties” (Bioorg Med Chem Lett, 2009).

pIC50: −log10 of the molar value. Converted amounts (≈) assume the structure as drawn. The source made the active and inactive calls. The calls are words filed in the database; no cut-off is given here. Bounds are passed on as bounds.

By Cmax is commonly meant the highest concentration seen after dosing. In general, pIC50 refers to −log10 of the IC50, conventionally taken in molar units. What is called AUC is concentration integrated over time. A lower AUC goes with less exposure. What is called solubility is the dissolved amount per volume that the medium holds. Low readings indicate a poorly soluble substance, high ones a readily soluble substance. Broadly, the inhibition is the drop in the measured response relative to a control, in per cent.

For the compound `O=S(=O)(c1ccc(-c2ccc(F)cc2)cc1)N1CCC(c2ncc[nH]2)CC1`, the Cmax in series [1] turned out to be 870 ng/mL. Also, the pIC50 in series [2] was 7.52; in series [3] it was 9.22. In series [4], this compound returned an AUC of 2300 ng·h/mL. In addition, the bioavailability in series [5] amounted to 54%.
As to `O=S(=O)(c1ccc(-c2ccccc2)cc1)N1CCC(Cc2ncc[nH]2)CC1`, the values for the pIC50 in series [2] and in series [3] were 6.00 and 8.19, respectively.
On to `O=C(c1ccc(-c2ccccc2)cc1)N1CC(c2nc3ccccc3[nH]2)C1`, for which the pIC50 in [2] is less than 5.55; in [3], 6.82.
On the same counts, the results for `NC(=O)c1ccc(-c2ccc(C(=O)N3CCC(c4nc5ccccc5[nH]4)CC3)cc2)cc1` are less than 4.62 and less than 5.62.
As to `NC(=O)C1CCN(C(=O)c2ccc(-c3ccccc3)cc2)CC1`, in series [3], the pIC50 was less than 5.19.
As to `O=S(=O)(c1ccc(-c2ccccc2)cc1)N1CCC(Cc2nc3ccccc3[nH]2)CC1`, the pIC50 in series [2] was less than 4.64; in series [3] it was 5.96.
Turning to `O=C(C1CCC(c2ccccc2)CC1)N1CCC(c2nc3ccccc3[nH]2)CC1` (centres undefined), the pIC50 was less than 4.70 in series [2] and 6.21 in [3].
For the compound `Cc1cc2c(cc1Cl)N(C(=O)Nc1cccc3ncccc13)CC2`, the Selectivity ratio amounted to 0.5 in series [6] and 7 in [7]. Moreover, the pIC50 is 7.19 in [2] and 7.89 in series [3].
In the case of `O=C(c1ccccc1)N1CCC(c2nc3ccccc3[nH]2)CC1`, the pIC50 in series [2] and in series [3] was less than 5.00 each time.
As for `O=C(c1ccc(-c2ccccc2)cc1)N1CCC(c2ncc[nH]2)CC1`, the fraction unbound in series [8] was 0.001.
In series [9], `N#Cc1cc(CN2CCC(Nc3ncnc4sc(Cl)cc34)CC2)ccc1F` [PRX-08066 FREE BASE] had a Cmax of 240 ng/mL. For the same compound, in series [8], the fraction unbound is 0.01. For the same compound, the bioavailability in series [10] came to 17%. Further, the Selectivity ratio in series [6] and in series [7] was greater than 3000 throughout. In addition, the negative logarithm of the IC50 (pIC50) is 6.57 in series [2] and 8.46 in series [3]. The AUC in [11] came to 500 ng·h/mL. The QH with Rattus norvegicus is recorded as 82%.
Take `O=C(c1ccc(-c2ccccc2)[nH]c1=O)N1CCC(c2nc3ccccc3[nH]2)CC1`: the pIC50 in series [2] was less than 5.52; in [3], 7.66.
In the case of `c1ccc(-c2ccc(CN3CCC(c4nc5ccccc5[nH]4)CC3)cc2)cc1`, the values for the pIC50 in series [2] and in [3] were 5.14 and 7.19, respectively.
As for `O=C(c1ccc(Br)cc1)N1CCC(c2nc3ccccc3[nH]2)CC1`, the pIC50 is less than 4.59 in series [2] and less than 4.89 in [3].
Regarding `CC(C)c1cc(-c2ccc(F)c3ccccc23)nc(N)n1`, the highest level in [9] (Cmax) was 470 ng/mL. Also, the fraction unbound in series [8] was 0.001. Also, the bioavailability in series [10] was 10%. Also, the Selectivity ratio in series [6] stood at 92; in [7], 2000. Also, the pIC50 is 7.72 in series [2] and 9.15 in [3]. This compound also returned an AUC in series [11] of 810 ng·h/mL. Moreover, the QH in the series on Rattus norvegicus was determined as 29%.
In [1], `O=C(c1ccc(-c2ccc(F)cc2)cc1)N1CCC(Cc2ncc[nH]2)CC1` registered a peak concentration (Cmax) of 600 ng/mL. In series [4], this compound returned an AUC of 6500 ng·h/mL. For the same compound, in series [5], the bioavailability was 118%.
For the compound `O=C(c1ccc(-c2ccccc2)cc1)N1CCC(Cc2nc3ccccc3[nH]2)CC1`, the pIC50 in series [2] is 6.52; in series [3] it was 8.64.
`O=C(c1ccc(-c2ccc(OC(F)(F)F)cc2)cc1)N1CCC(c2nc3ccccc3[nH]2)CC1`: the negative-log IC50 (pIC50) in [2] was 4.80; in series [3] it was 7.02.
For `O=C(c1ccc(-c2ccccc2)cc1)N1CCC(c2nc3ccccc3o2)CC1`, the pIC50 in [2] is less than 4.70; in series [3], 5.82.
Consider `O=S(=O)(c1ccc(-c2ccccc2)cc1)N1CCC(c2ncc[nH]2)CC1`, for which the results for the negative-log IC50 (pIC50) in series [2] and in series [3] were 7.49 and 9.52, respectively.
With `O=C(c1ccc(C2CCCCC2)cc1)N1CCC(c2nc3ccccc3[nH]2)CC1`, the pIC50 in series [2] was 5.96; in series [3], 7.51.
Regarding `COc1cc(-c2ccccc2)ccc1C(=O)N1CCC(c2nc3ccccc3[nH]2)CC1`, the negative-log IC50 (pIC50) in series [2] was 5.92; in [3], 8.40.
Take `O=C(c1ccc(-c2ncccn2)cc1)N1CCC(c2nc3ccccc3[nH]2)CC1`: the pIC50 was less than 5.57 in series [2] and 6.92 in series [3].
With `O=C(c1ccc(-c2ccccc2)cc1)N1CCN(c2nc3ccccc3[nH]2)CC1`, the pIC50 in series [2] is less than 4.60; in [3], 5.16.
In the case of `O=C(c1ccc(-c2ccccc2)cc1)N1CCC(Cc2ncc[nH]2)CC1`, the pIC50 was 7.85 in [2] and 9.40 in series [3].
As for `COc1ccc(-c2ccc(C(=O)N3CCC(c4nc5ccccc5[nH]4)CC3)cc2)cc1`, the pIC50 in [2] is 5.49; in series [3], 8.47.
Consider `CCOc1nc(-c2ccccc2)ncc1C(=O)N1CCC(c2nc3ccccc3[nH]2)CC1`, for which the pIC50 is 6.04 in series [2] and 8.22 in [3].
Compound `O=C(c1ccc(-c2ccccc2)cc1)N1CCC(c2nc3ccccc3[nH]2)CC1` registered a Cmax in [1] of 5000 ng/mL. For the same compound, the fraction unbound in series [8] is 0.001. The Selectivity ratio in series [6] and in series [7] was greater than 10000 each time. Also, the concentration in solution in series [12] (solubility) was 3 µg/mL (≈ 7.86 µM). For the same compound, the outcome in series [13] and in series [14] was inactive. In addition, the figures for the negative-log IC50 (pIC50) in [2] and in series [3] were 5.92 and 8.62, respectively. This compound also gave an AUC in series [4] of 25000 ng·h/mL. This compound returned an inhibition in series [15] of 99%. In addition, the bioavailability in series [5] was 130%.
For `O=C(c1cnc(-c2ccccc2)nc1)N1CCC(c2nc3ccccc3[nH]2)CC1`, in series [8], the fraction unbound was 0.009. The results for the pIC50 in series [2] and in series [3] were 6.15 and 8.60, respectively.
As to `O=S(=O)(c1ccc(-c2ccccc2)cc1)N1CCC(c2nc3ccccc3[nH]2)CC1`, the pIC50 was 6.08 in series [2] and 8.72 in series [3].
On the same counts, the results for `O=C(c1ccc(-c2cccnc2)cc1)N1CCC(c2nc3ccccc3[nH]2)CC1` are less than 4.85 and 6.47.
In the case of `O=C(c1ccc(N2CCOCC2)cc1)N1CCC(c2nc3ccccc3[nH]2)CC1`, the pIC50 in series [2] is less than 4.59; in [3], 5.64.
Regarding `O=C(c1ccc(-c2ccccc2)cn1)N1CCC(c2nc3ccccc3[nH]2)CC1`, the pIC50 was less than 5.62 in series [2] and 7.92 in [3].
Take `O=C(c1ccc(-c2ccc(F)cc2)cc1)N1CCC(c2ncc[nH]2)CC1`: the Cmax in series [1] came to 1700 ng/mL. This compound also gave an AUC in series [4] of 14000 ng·h/mL. Besides, the bioavailability in series [5] was 100%.
Regarding `Cn1c(C2CCN(C(=O)c3ccc(-c4ccccc4)cc3)CC2)nc2ccccc21`, the negative logarithm of the IC50 (pIC50) in series [2] was 5.00; in series [3] it was 7.10.
Regarding `O=C(c1ccc(-c2ccncc2)cc1)N1CCC(c2nc3ccccc3[nH]2)CC1`, the negative logarithm of the IC50 (pIC50) was less than 4.89 in series [2] and less than 5.89 in series [3].
Consider `O=C(c1ccc(N2CCCCC2)cc1)N1CCC(c2nc3ccccc3[nH]2)CC1`, for which the results for the negative logarithm of the IC50 (pIC50) in series [2] and in series [3] were 4.92 and 7.32, respectively.
